The subject of one assay is HCC44-PSCA. Briefly: HCC44-PSCA SC tumors in NSG mice with IV CAR-T transfer (human T cell ACT mouse model). The class given is in vivo. Here is the method: Inoculated in NSG mice and received IV CART transfer with AMG-510 Orla gavage (30 mg/Kg/Mouse for 6 days then sacrificed and tumors were collected and stained with T cells markers, or for 20 days with IP anti-human PD1 Ab (twice a week) for Tumor growth curve.

Assay [1] deals with CT26-G12C colon cancer cells. Format: in vivo, mouse. Here is the method: CT26-G12C colon cancer cells were SC. Implanted in BALB/C mice, and left to develop SC. Tumors for 20 days, then treated with oral gavage of 3 mg/kg/mouse TRA or 30 mg/kg/mouse AMG-510 for 6 days alone or for 20 days with anti-PD1 Ab (IP 200 μg/mouse twice a week). Tumor size was measured till mice being sacrificed. tumors were collected and stained for T cell, and Myeloid cell markers mouse antibodies (anti-CD45, anti-CD8, anti-CD4, anti-CD3, anti-CD69, anti-PD1, anti-CD25, anti-CD62L, anti-CD44, anti-F4/80, anti-CD11C, anti-CD11b, anti-Ly6G, ant-Ly6C and Live/Dead near IR viability dye). CM (central memory): CD62L+CD44+, EM (Effector memory) CD62L-CD44+. Mice survival was assessed using Kaplan-Meier survival test.

The next assay relates to CT26-G12C tumors. Put plainly: Single cell RNA sequencing of CT26-G12C tumors. The class given is in vivo, mouse. The text has this:
UMAP projections were generated from scRNA-seq data and used for visualization. Cell type clusters detected in DAPI-sorted cells from CT26-G12C SC. Tumors (FIG. 4A), or from CT26-G12C in vitro cell line (FIG. 4D) treated with the indicated conditions are shown, with cell % percentage histogram and gene-level expression heat map calculated for each cluster.

In the case of `C=CC(=O)N1CCN(c2nc(=O)n(-c3c(C)ccnc3C(C)C)c3nc(-c4c(O)cccc4F)c(F)cc23)[C@@H](C)C1` (atropisomer, axis not shown) [Sotorasib, 6-fluoro-7-(2-fluoro-6-hydroxyphenyl)-(1/W)-1-[4-methyl-2-(propan-2-yl)pyridin-3-yl]-4-[(2S)-2-methyl-4-(prop-2-enoyl)piperazin-1-yl]pyrido[2,3-cf]pyrimidin-2 (1/-/)-one], in the assay on HCC44-PSCA (combined with CAR-T adoptive cell transfer and anti-PD1 treatment), the “anti-tumor effect of CAR-T adoptive cell transfer and anti-PD1” value is “enhanced their anti-tumor effect”. The “expansion of tumor infiltrating lymphocytes (TILs)” value is recorded as “significantly promoted the expansion of tumor infiltrating lymphocytes” in the assay with HCC44-PSCA (human T cell adoptive therapy (ACT) mouse model, 30 mg/Kg/Mouse oral gavage, 6 days) and “significantly promoted the expansion of tumor infiltrating lymphocytes” in assay [1] (CT26-G12C heterotrophic mouse model, 30 mg/kg/mouse oral gavage, 6 days). The “mouse survival (Kaplan-Meier)” value in assay [1] (combined with anti-PD-1, CT26-G12C model) is reported as “prolonging mouse survival”. In addition, in assay [1] (mouse tumor models), the “tumor microenvironment / T cell effector phenotype” value is recorded as “strikingly augmented T cell effector phenotype”. Besides, the “control of CT26-G12C tumor growth” value in assay [1] (mouse, in vivo, ip) is recorded as “synergized with anti-PD-1 in controlling CT26-G12C tumor growth”. The “immuno-active and growth-active tumor clusters (scRNA-seq, cell % per cluster)” value in the assay with CT26-G12C tumors (CT26-G12C SC tumors and in vitro cell line) was “enriches the immuno-active and diminishes growth-active tumor clusters”. Also, in the assay on CT26-G12C tumors (Sotorasib-treated CT26-G12C tumors), the “tumor clusters by top upregulated pathways (scRNA-seq)” value was “enrichment of tumor clusters with TNFα and IFNγ as top upregulated pathways”.

Values taken from patent US20250295665A1, “SELECTIVE K-RAS INHIBITORS FOR THE ENHANCEMENT OF ADOPTIVE IMMUNOTHERAPIES” (H. LEE MOFFITT CANCER CENTER AND RESEARCH INSTITUTE INC., priority 2022, published 2025).
